This note sets out measurements from ChEMBL document CHEMBL1128951, “6-(4-Phenyl-benzyloxy-methyl) guvacine. Synthesis, GABA uptake inhibitor and muscarinic properties” (Bioorg Med Chem Lett, 1996).

The nature of test [1]: In vitro inhibitory activity against gamma-aminobutyric acid (GABA) uptake. The class given is functional.
In test [2] the target is T1, Muscarinic acetylcholine receptor M2 (Homo sapiens) (UniProt P08172).
T1 sequence (whole entry): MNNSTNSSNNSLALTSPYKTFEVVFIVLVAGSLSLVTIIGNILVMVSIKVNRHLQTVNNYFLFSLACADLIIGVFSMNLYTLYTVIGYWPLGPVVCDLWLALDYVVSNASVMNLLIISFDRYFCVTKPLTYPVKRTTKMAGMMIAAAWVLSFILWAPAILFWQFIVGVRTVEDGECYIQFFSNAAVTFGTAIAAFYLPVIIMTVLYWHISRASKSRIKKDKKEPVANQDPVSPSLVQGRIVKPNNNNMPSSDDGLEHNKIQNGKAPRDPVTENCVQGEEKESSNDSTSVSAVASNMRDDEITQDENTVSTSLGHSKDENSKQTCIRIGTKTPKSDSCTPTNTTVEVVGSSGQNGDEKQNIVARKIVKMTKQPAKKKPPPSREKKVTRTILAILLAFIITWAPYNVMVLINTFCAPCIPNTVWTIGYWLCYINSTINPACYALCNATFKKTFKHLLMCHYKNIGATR
In words: Compound was evaluated for binding affinity by displacement of [3H]NMS from muscarinic M2 receptor at concentration 100 nM.

In test [3] the target is T2, Muscarinic acetylcholine receptor M1 (Homo sapiens) (UniProt P11229).
T2 sequence (whole entry): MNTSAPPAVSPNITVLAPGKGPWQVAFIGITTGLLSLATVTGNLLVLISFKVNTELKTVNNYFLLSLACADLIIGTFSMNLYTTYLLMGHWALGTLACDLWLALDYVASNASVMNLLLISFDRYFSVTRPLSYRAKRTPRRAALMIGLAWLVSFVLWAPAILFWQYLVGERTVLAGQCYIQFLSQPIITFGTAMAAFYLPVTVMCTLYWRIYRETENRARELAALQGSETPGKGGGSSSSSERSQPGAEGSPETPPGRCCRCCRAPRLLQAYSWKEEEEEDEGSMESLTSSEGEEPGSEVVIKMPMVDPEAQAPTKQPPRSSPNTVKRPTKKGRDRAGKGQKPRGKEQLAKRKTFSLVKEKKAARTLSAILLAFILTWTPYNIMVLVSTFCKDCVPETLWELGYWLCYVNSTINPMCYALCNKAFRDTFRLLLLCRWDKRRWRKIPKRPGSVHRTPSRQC
The test can be described thus: Compound was evaluated for binding affinity by displacement of [3H]pirenzepine from muscarinic M1 receptor at concentration 100 nM. Background: Loss of bound radioactivity is the signal in a displacement assay; it reports binding, not function.

Consider `O=C(O)C1=CCCN(CCC=C(c2ccccc2)c2ccccc2)C1`, for which it took 210 nM to reach half-maximal inhibition in test [1] (IC50).
With `O=C(O)C1=CCC(COCc2ccc(-c3ccccc3)cc2)NC1` (stereo unspecified), the inhibition (commonly how much of the control response was suppressed) was 59% in test [2] and 57% in test [3].
Consider `O=C(O)C1=CCC(CCC(c2ccccc2)c2ccccc2)NC1` (stereo unspecified), for which the 50% inhibitory concentration (IC50) (commonly the midpoint of a concentration-inhibition curve) in test [1] was determined as 100 nM.
For the compound `CCOC(=O)C1=CCC(COCc2ccc(-c3ccccc3)cc2)NC1` (stereo unspecified), the results for the inhibition in test [2] and in test [3] were 14% and 12%, respectively.
